In patent publication US20230085307A1, “PYRIDAZINONE COMPOUND AND HERBICIDE” (NISSAN CHEMICAL CORPORATION, priority 2019, published 2023):

Assays:
late watergrass [1] = assay: Test Example 1: herbicidal activity, application before weed generation under submerged conditions (Table 16, symbol A); type: in vivo, late watergrass (Echinochloa oryzicola)
Procedure, shortened: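 Emulsion formulation, water-diluted to set dose, was put onto the flooded surface (4 cm depth, alluvial soil) the same day weeds were sown and 2.5-leaf rice transplanted. After 3 weeks at 25-30 °C under glass, each species was rated 0 (≤5% kill) to 5 (≥90% kill).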

late watergrass [2] = assay: Test Example 2: herbicidal activity, application during weed generation under submerged conditions (Table 17, symbol A); type: in vivo, late watergrass (Echinochloa oryzicola); conditions: application during weed generation, submerged conditions
Procedure, shortened: (§1)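 In this pot test, flooded alluvial soil (water depth 4 cm) holds all three species sown as a mixture. Once seedlings have one to two leaves, the compound's emulsion, thinned with water to the intended dose, is poured on the water; grading follows after three weeks on the earlier criteria.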

oval-leafed pondweed = assay: Test Example 2: herbicidal activity, application during weed generation under submerged conditions (Table 17, symbol C); type: in vivo, oval-leafed pondweed (Monochoria vaginalis); conditions: application during weed generation, submerged conditions
Procedure, shortened: as §1

barnyard grass [3] = assay: Test Example 3: herbicidal effect by foliage application, Wagner pot (Table 18, symbol H); type: in vivo, barnyard grass (Echinochloa crus-galli)
Procedure, shortened: (§2)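 Plants were sown in alluvial soil held under 0.1–0.5 cm standing water and grown 14 days in a greenhouse at 25–30 °C. An emulsifiable formulation, water-diluted to the set dose, was then sprayed onto the foliage, and effects were scored three weeks later using previously defined criteria.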

Chinese sprangletop = assay: Test Example 3: herbicidal effect by foliage application, Wagner pot (Table 18, symbol D); type: in vivo, chinese sprangletop (Leptochloa chinensis)
Procedure, shortened: as §2

green foxtail [4] = assay: Test Example 4: herbicidal effect by soil treatment (Table 19, symbol G); type: in vivo, green foxtail (Setaria viridis)
Procedure, shortened: (§3)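 Pre-emergence style soil spray: seeds under ~1.5 cm sterilized diluvial soil received a uniform coat of emulsion diluted to the predetermined herbicide amount. Greenhouse 25–30° C; readout at week three on previously defined criteria.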

windgrass [5] = assay: Test Example 4: herbicidal effect by soil treatment (Table 19, symbol L); type: in vivo, windgrass (Apera spica-venti)
Procedure, shortened: as §3

velvetleaf [6] = assay: Test Example 4: herbicidal effect by soil treatment (Table 19, symbol M); type: in vivo, velvetleaf (Abutilon theophrasti)
Procedure, shortened: as §3

redroot pigweed [7] = assay: Test Example 4: herbicidal effect by soil treatment (Table 19, symbol N); type: in vivo, redroot pigweed (Amaranthus retroflexus)
Procedure, shortened: as §3

false cleavers = assay: Test Example 4: herbicidal effect by soil treatment (Table 19, symbol Q); type: in vivo, false cleavers (Galium spurium)
Procedure, shortened: as §3

green foxtail [8] = assay: Test Example 5: herbicidal effect by foliage application, plastic box (Table 20, symbol G); type: in vivo, green foxtail (Setaria viridis); conditions: foliage application, three weeks after application
Procedure, shortened: (§4)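 Plants were sown into sterilized diluvial soil under about 1.5 cm cover and kept in a greenhouse at 25° C. to 30° C. Fourteen days on, foliage received an even spray of the diluted emulsion. Herbicidal or crop effect was judged three weeks afterwards.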

barnyard grass [9] = assay: Test Example 5: herbicidal effect by foliage application, plastic box (Table 20, symbol H); type: in vivo, barnyard grass (Echinochloa crus-galli); conditions: foliage application, three weeks after application
Procedure, shortened: as §4

wild oat = assay: Test Example 5: herbicidal effect by foliage application, plastic box (Table 20, symbol I); type: in vivo, wild oat (Avena fatua); conditions: foliage application, three weeks after application
Procedure, shortened: as §4

windgrass [10] = assay: Test Example 5: herbicidal effect by foliage application, plastic box (Table 20, symbol L); type: in vivo, windgrass (Apera spica-venti); conditions: foliage application, three weeks after application
Procedure, shortened: as §4

velvetleaf [11] = assay: Test Example 5: herbicidal effect by foliage application, plastic box (Table 20, symbol M); type: in vivo, velvetleaf (Abutilon theophrasti); conditions: foliage application, three weeks after application
Procedure, shortened: as §4

redroot pigweed [12] = assay: Test Example 5: herbicidal effect by foliage application, plastic box (Table 20, symbol N); type: in vivo, redroot pigweed (Amaranthus retroflexus); conditions: foliage application, three weeks after application
Procedure, shortened: as §4

lambsquarters = assay: Test Example 5: herbicidal effect by foliage application, plastic box (Table 20, symbol O); type: in vivo, lambsquarters (Chenopodium album); conditions: foliage application, three weeks after application
Procedure, shortened: as §4

[13] = amount of applied herbicide 320 g/ha
[14] = amount of applied herbicide 323 g/ha

Compound | Herbicidal effect, A: late watergrass (late watergrass [1]; [13]) | herbicidal effect rating, A: late watergrass (late watergrass [2]; AAH 320 g/ha) | herbicidal effect rating, C: oval-leafed pondweed (oval-leafed pondweed; AAH 320 g/ha) | herbicidal effect on barnyard grass (H) (barnyard grass [3]; 320 g/ha) | herbicidal effect on Chinese sprangletop (D) (Chinese sprangletop; 320 g/ha) | G: green foxtail, herbicidal effect grade (green foxtail [4]; [13]) | L: windgrass, herbicidal effect grade (windgrass [5]; [13]) | M: velvetleaf, herbicidal effect grade (velvetleaf [6]; [13]) | N: redroot pigweed, herbicidal effect grade (redroot pigweed [7]; [13]) | Q: false cleavers, herbicidal effect grade (false cleavers; [13]) | G: green foxtail, herbicidal effect grade (green foxtail [8]; 320 g/ha) | H: barnyard grass, herbicidal effect grade (barnyard grass [9]; 320 g/ha) | I: wild oat, herbicidal effect grade (wild oat; 320 g/ha) | L: windgrass, herbicidal effect grade (windgrass [10]; 320 g/ha) | M: velvetleaf, herbicidal effect grade (velvetleaf [11]; 320 g/ha) | N: redroot pigweed, herbicidal effect grade (redroot pigweed [12]; 320 g/ha) | O: lambsquarters, herbicidal effect grade (lambsquarters; 320 g/ha) | further results
CCOc1ccc2c(-c3c(O)c(C)nn(C)c3=O)c(-c3ccccc3OC)sc2c1 [3-089] | 5 (Herbicidal rate of 90% or more (almost completely withered)) | 4 (Herbicidal rate of 70% or more and less than 90%) | 5 (Herbicidal rate of 90% or more (almost completely withered)) | 5 (Herbicidal rate of 90% or more (almost completely withered)) | 4 (Herbicidal rate of 70% or more and less than 90%) | 4 (Herbicidal rate of 70% or more and less than 90%) | 4 (Herbicidal rate of 70% or more and less than 90%) | 0 (Herbicidal rate of 5% or less (almost no effect)) | 5 (Herbicidal rate of 90% or more (almost completely withered)) | 5 (Herbicidal rate of 90% or more (almost completely withered)) | 4 (Herbicidal rate of 70% or more and less than 90%) | 5 (Herbicidal rate of 90% or more (almost completely withered)) | 3 (Herbicidal rate of 40% or more and less than 70%) | 5 (Herbicidal rate of 90% or more (almost completely withered)) | 5 (Herbicidal rate of 90% or more (almost completely withered)) | 5 (Herbicidal rate of 90% or more (almost completely withered)) | 4 (Herbicidal rate of 70% or more and less than 90%) | –
CCOc1ccc2c(-c3c(O)c(C)nn(C)c3=O)c(-c3ccccc3OCC)sc2c1 [3-093] | 5 (Herbicidal rate of 90% or more (almost completely withered)) | 3 (Herbicidal rate of 40% or more and less than 70%) | 5 (Herbicidal rate of 90% or more (almost completely withered)) | 5 (Herbicidal rate of 90% or more (almost completely withered)) | 5 (Herbicidal rate of 90% or more (almost completely withered)) | 5 (Herbicidal rate of 90% or more (almost completely withered)) | 4 (Herbicidal rate of 70% or more and less than 90%) | 3 (Herbicidal rate of 40% or more and less than 70%) | 5 (Herbicidal rate of 90% or more (almost completely withered)) | 3 (Herbicidal rate of 40% or more and less than 70%) | 5 (Herbicidal rate of 90% or more (almost completely withered)) | 5 (Herbicidal rate of 90% or more (almost completely withered)) | 4 (Herbicidal rate of 70% or more and less than 90%) | 5 (Herbicidal rate of 90% or more (almost completely withered)) | 5 (Herbicidal rate of 90% or more (almost completely withered)) | 5 (Herbicidal rate of 90% or more (almost completely withered)) | 5 (Herbicidal rate of 90% or more (almost completely withered)) | –
CCCC(=O)Oc1c(C)nn(C)c(=O)c1-c1c(-c2ccccc2OCC)sc2cc(OCC)ccc12 [3-094] | – | – | – | – | – | – | – | – | – | – | – | – | – | – | – | – | – | Herbicidal effect, A: late watergrass (late watergrass [1]; [14]): 5 (Herbicidal rate of 90% or more (almost completely withered)); herbicidal effect rating, A: late watergrass (late watergrass [2]; AAH 323 g/ha): 3 (Herbicidal rate of 40% or more and less than 70%); herbicidal effect rating, C: oval-leafed pondweed (oval-leafed pondweed; AAH 323 g/ha): 4 (Herbicidal rate of 70% or more and less than 90%); herbicidal effect on barnyard grass (H) (barnyard grass [3]; 323 g/ha): 5 (Herbicidal rate of 90% or more (almost completely withered)); herbicidal effect on Chinese sprangletop (D) (Chinese sprangletop; 323 g/ha): 5 (Herbicidal rate of 90% or more (almost completely withered)); G: green foxtail, herbicidal effect grade (green foxtail [4]; [14]): 3 (Herbicidal rate of 40% or more and less than 70%); L: windgrass, herbicidal effect grade (windgrass [5]; [14]): 4 (Herbicidal rate of 70% or more and less than 90%); M: velvetleaf, herbicidal effect grade (velvetleaf [6]; [14]): 0 (Herbicidal rate of 5% or less (almost no effect)); N: redroot pigweed, herbicidal effect grade (redroot pigweed [7]; [14]): 5 (Herbicidal rate of 90% or more (almost completely withered)); Q: false cleavers, herbicidal effect grade (false cleavers; [14]): 4 (Herbicidal rate of 70% or more and less than 90%); G: green foxtail, herbicidal effect grade (green foxtail [8]; 323 g/ha): 4 (Herbicidal rate of 70% or more and less than 90%); H: barnyard grass, herbicidal effect grade (barnyard grass [9]; 323 g/ha): 5 (Herbicidal rate of 90% or more (almost completely withered)); I: wild oat, herbicidal effect grade (wild oat; 323 g/ha): 5 (Herbicidal rate of 90% or more (almost completely withered)); L: windgrass, herbicidal effect grade (windgrass [10]; 323 g/ha): 5 (Herbicidal rate of 90% or more (almost completely withered)); M: velvetleaf, herbicidal effect grade (velvetleaf [11]; 323 g/ha): 5 (Herbicidal rate of 90% or more (almost completely withered)); N: redroot pigweed, herbicidal effect grade (redroot pigweed [12]; 323 g/ha): 5 (Herbicidal rate of 90% or more (almost completely withered)); O: lambsquarters, herbicidal effect grade (lambsquarters; 323 g/ha): 4 (Herbicidal rate of 70% or more and less than 90%)
CCCC(=O)Oc1c(C)nn(C)c(=O)c1-c1c(-c2ccc(F)cc2OCC)sc2cc(OCC)ccc12 [3-096] | 5 (Herbicidal rate of 90% or more (almost completely withered)) | 4 (Herbicidal rate of 70% or more and less than 90%) | 4 (Herbicidal rate of 70% or more and less than 90%) | 5 (Herbicidal rate of 90% or more (almost completely withered)) | 5 (Herbicidal rate of 90% or more (almost completely withered)) | 4 (Herbicidal rate of 70% or more and less than 90%) | 5 (Herbicidal rate of 90% or more (almost completely withered)) | 4 (Herbicidal rate of 70% or more and less than 90%) | 5 (Herbicidal rate of 90% or more (almost completely withered)) | 5 (Herbicidal rate of 90% or more (almost completely withered)) | 4 (Herbicidal rate of 70% or more and less than 90%) | 5 (Herbicidal rate of 90% or more (almost completely withered)) | 5 (Herbicidal rate of 90% or more (almost completely withered)) | 5 (Herbicidal rate of 90% or more (almost completely withered)) | 5 (Herbicidal rate of 90% or more (almost completely withered)) | 5 (Herbicidal rate of 90% or more (almost completely withered)) | 5 (Herbicidal rate of 90% or more (almost completely withered)) | –
